Reference: article PMC7862507, “Adrenomedullin for steroid-resistant ulcerative colitis: a randomized, double-blind, placebo-controlled phase-2a clinical trial” (Journal of Gastroenterology, 2020)

Assays:
[1] = tested on: patients with steroid-resistant UC; assay: Adverse events, safety assessment; conditions: patients with event, n = 7; for Severe adverse events: placebo 0; for Serious adverse events: placebo 1 (14%)
Method: Safety evaluations including the evaluation of adverse events (AEs) and serious adverse events (SAEs) were conducted throughout the study. Vital signs, blood and urine tests, and a 12-lead ECG were performed at specified times after administration, with monitoring of ECG being assessed from the beginning of every test drug administration until 2 h after the administration.
All data, except for the PK parameters, were collected using an electronic data collection system (Viedoc) and analyzed by Intellim (Tokyo, Japan), an independent CRO. […] The population included in the safety analysis were all patients who received at least 1 day of administration of the test drug. […] The significant level for each test was 5%. All analyses were performed using SAS version 9.3 (SAS Institute, Cary, NC, USA). […] All data are shown as mean ± standard deviation (SD).

[2] = tested on: patients with steroid-resistant UC; assay: Mayo endoscopy subscore (MES), phase-2a clinical trial; type: in vivo, Japanese patients; conditions: mean ± SD
From the text: (§1) Patients had to meet all criteria, namely, a Mayo score of 6 or more, a rectal bleeding subscore of at least 1, and Mayo endoscopy subscore (MES) of at least 2, at entry. Main exclusion criteria were as follows: patients with fulminant UC, patients with precancerous lesion in the colon, medication history of biologics within the last 3 months, patients with malignancy or any history of malignancy, and patients with active infection. We excluded patients with a systolic blood pressure under 90 mmHg and a pulse rate under 45 bpm for safety reasons due to the vasodilatory effect of AM. All patients provided written informed consent for all study-related procedures and were requested to be hospitalized for 2 weeks.
(§2) Patients were enrolled after confirmation of steroid-resistance defined as at least daily treatment with 30 mg or more of prednisolone. Screening tests including measurements of vital signs, blood and urine examinations, as well as a 12-lead electrocardiography (ECG), were conducted within 2 weeks prior to administration. Demographic data and disease characteristics including endoscopic disease activity of patients were also collected before randomization. Endoscopic subscores were assessed by on-site investigators and were not subjected to central review. Clinical disease activity was assessed by expert doctors according to the Mayo score and Lichtiger index. Stool samples were collected before administration of the investigational drug and after 2 weeks of treatment initiation. Measurements of fecal calprotectin and […] (FITs) were performed by a commercially available laboratory testing service (BML, Tokyo, Japan) in compliance with GCP. Additionally, measurements of complement components including CH50, C1q, C3, and C4 and evaluation of the absolute number of hematopoietic stem cells in the peripheral blood were performed before and after 2, 4, and 8 weeks by other laboratory testing services (SRL medisearch, Tokyo, Japan and LSI medience, Tokyo, Japan, respectively). The absolute number of hematopoietic stem cells in the peripheral blood was measured as CD34-positive cells using CD45FITC/CD34PE, 7AAD kit (Becton Dickinson Immunocytometry System, USA) and flow cytometry.
(§3) After hospitalization, patients received a continuous infusion of the assigned drug for 8 h per day for a total of 14 days. After the final administration of the investigational drug, patients were subjected to safety examinations and then discharged. But, if necessary due to disease activity, continuous hospitalization was allowed. Patients were requested to make an office visit at 4 and 8 weeks. Evaluations of their Mayo scores including endoscopic examinations were done at 2 and 8 weeks, whereas evaluation of the Lichtiger index was done at 2, 4, and 8 weeks. The dose of concomitant steroid was maintained for 2 weeks after drug administration, and then, a reduction in the steroid dose was allowed depending on the disease condition. Changes to the doses of other drugs, such as aminosalicylic acid, were prohibited throughout the trial.
(§4) All data were collected at each institute from March 2017 to April 2019. The primary endpoint was the change in the Mayo scores at 2 weeks. Secondary endpoints included the change in the Mayo scores at 8 weeks and the rate of clinical remission at 2 and 8 weeks, defined as a Mayo score 0; the response rate of the Mayo scores at 2 and 8 weeks, defined as an improvement of a 3-point or more decrease or at least a 30% decrease from baseline; the changes in MES at 2 and 8 weeks; the changes in the Lichtiger index at 2, 4, and 8 weeks; the changes in fecal calprotectin and FIT at 2 weeks; and finally, the changes in the given dose of steroid.
(§5) The significant level for each test was 5%. […] All data are shown as mean ± standard deviation (SD).

[3] = tested on: steroid-resistant UC; conditions: 9 ng/kg/min of AM; real dose might have been higher (1.4-fold dose of bulk powder used); cited from earlier work
From the text: A high rate of the placebo effect has been reported in a previous trial for UC [1–3]. High response rates in the placebo group have occasionally obstructed the successful accomplishment of clinical trials for active UC [19]. In this trial, we were concerned about the major impact from the placebo effect because attending patients received hospitalization and bed rest for 2 weeks. Figure 2 illustrates the changes in clinical indexes and fecal markers of each patient at 2 weeks.

[4] = tested on: patients with steroid-resistant UC; assay: Mayo score, phase-2a clinical trial; type: in vivo, Japanese patients; conditions: mean ± SD
From the text: as §1, §2, §3, §4, §5

[5] = tested on: patients with steroid-resistant UC; assay: Lichtiger index, phase-2a clinical trial; type: in vivo, Japanese patients; conditions: mean ± SD
From the text: as §1, §2, §3, §4, §5

## CC[C@H](C)[C@H](NC(=O)[C@H](CCC(N)=O)NC(=O)[C@H](Cc1c[nH]cn1)NC(=O)[C@H](C)NC(=O)[C@H](CC(C)C)NC(=O)[C@H](CCCCN)NC(=O)[C@H](CCC(N)=O)NC(=O)[C@@H](NC(=O)[C@@H](NC(=O)[C@@H]1CSSC[C@H](NC(=O)CNC(=O)[C@H](Cc2ccccc2)NC(=O)[C@H](CO)NC(=O)[C@H](CCCNC(=N)N)NC(=O)[C@H](CC(C)C)NC(=O)CNC(=O)[C@H](CCC(N)=O)NC(=O)[C@H](Cc2ccccc2)NC(=O)[C@H](CC(N)=O)NC(=O)[C@H](CC(N)=O)NC(=O)[C@H](CCSC)NC(=O)[C@H](CO)NC(=O)[C@H](CCC(N)=O)NC(=O)[C@H](CCCNC(=N)N)NC(=O)[C@@H](N)Cc2ccc(O)cc2)C(=O)N[C@@H](CCCNC(=N)N)C(=O)N[C@@H](Cc2ccccc2)C(=O)NCC(=O)N[C@@H]([C@@H](C)O)C(=O)N1)[C@@H](C)O)C(C)C)C(=O)N[C@@H](Cc1ccc(O)cc1)C(=O)N[C@@H](CCC(N)=O)C(=O)N[C@@H](Cc1ccccc1)C(=O)N[C@H](C(=O)N[C@@H](CC(=O)O)C(=O)N[C@@H](CCCCN)C(=O)N[C@@H](CC(=O)O)C(=O)N[C@@H](CCCCN)C(=O)N[C@@H](CC(=O)O)C(=O)N[C@@H](CC(N)=O)C(=O)N[C@H](C(=O)N[C@@H](C)C(=O)N1CCC[C@H]1C(=O)N[C@@H](CCCNC(=N)N)C(=O)N[C@@H](CO)C(=O)N[C@@H](CCCCN)C(=O)N[C@H](C(=O)N[C@@H](CO)C(=O)N1CCC[C@H]1C(=O)N[C@@H](CCC(N)=O)C(=O)NCC(=O)N[C@@H](Cc1ccc(O)cc1)C(N)=O)[C@@H](C)CC)C(C)C)[C@@H](C)O [Adrenomedullin]
[1]; AM 10 ng/kg/min
  Severe adverse events: 0
  Serious adverse events: 0
[1]; AM 15 ng/kg/min
  Severe adverse events: 0
  Serious adverse events: 0
[2]; AM 5 ng/kg/min infusion 8 h/day x 14 days, 2 week, n = 4, baseline 2.3 ± 0.5, placebo 2.0 ± 0.6
  MES (Mayo endoscopic sub-score): 1.5 ± 0.6
[2]; AM 5 ng/kg/min infusion 8 h/day x 14 days, 2 week, n = 4, placebo -0.5 ± 0.8, P = 0.67 vs. placebo
  Change of MES: -0.8 ± 1.0
[2]; AM 5 ng/kg/min infusion 8 h/day x 14 days, 8 week, n = 3, placebo 2.0 ± 1.4 (n = 2)
  MES (Mayo endoscopic sub-score): 0.7 ± 0.6
[2]; AM 5 ng/kg/min infusion 8 h/day x 14 days, 8 week, n = 3, placebo -0.5 ± 2.1 (n = 2), P = 0.47 vs. placebo
  Change of MES: -1.7 ± 1.2
[2]; AM 10 ng/kg/min infusion 8 h/day x 14 days, 2 week, n = 5, baseline 2.2 ± 0.4, placebo 2.0 ± 0.6
  MES (Mayo endoscopic sub-score): 2.2 ± 0.8
[2]; AM 10 ng/kg/min infusion 8 h/day x 14 days, 2 week, n = 5, placebo -0.5 ± 0.8, P = 0.32 vs. placebo
  Change of MES: 0.0 ± 0.7
[2]; AM 10 ng/kg/min infusion 8 h/day x 14 days, 8 week, n = 3, placebo 2.0 ± 1.4 (n = 2)
  MES (Mayo endoscopic sub-score): 2.0 ± 0.0
[2]; AM 10 ng/kg/min infusion 8 h/day x 14 days, 8 week, n = 3, placebo -0.5 ± 2.1 (n = 2), P = 0.69 vs. placebo
  Change of MES: 0.0 ± 0.0
[2]; AM 15 ng/kg/min infusion 8 h/day x 14 days, 2 week, n = 6, baseline 2.5 ± 0.5, placebo 2.0 ± 0.6
  MES (Mayo endoscopic sub-score): 2.3 ± 1.0
[2]; AM 15 ng/kg/min infusion 8 h/day x 14 days, 2 week, n = 6, placebo -0.5 ± 0.8, P = 0.49 vs. placebo
  Change of MES: -0.2 ± 0.8
[2]; AM 15 ng/kg/min infusion 8 h/day x 14 days, 8 week, n = 3, placebo 2.0 ± 1.4 (n = 2)
  MES (Mayo endoscopic sub-score): 0.0 ± 0.0
[2]; AM 15 ng/kg/min infusion 8 h/day x 14 days, 8 week, n = 3, placebo -0.5 ± 2.1 (n = 2), P = 0.27 vs. placebo
  Change of MES: -2.0 ± 0.0
[3]
  improvement in steroid-resistant UC: significant improvement
[4]; AM 5 ng/kg/min infusion 8 h/day x 14 days, at 2 weeks, n = 4, baseline 9.5 ± 1.0, placebo 6.8 ± 3.6
  Mayo score: 5.0 ± 3.2
[4]; AM 5 ng/kg/min infusion 8 h/day x 14 days, at 8 weeks, n = 3, placebo 4.5 ± 3.5 (n = 2)
  Mayo score: 2.0 ± 1.7
[4]; AM 10 ng/kg/min infusion 8 h/day x 14 days, at 2 weeks, n = 5, baseline 8.8 ± 1.1, placebo 6.8 ± 3.6
  Mayo score: 7.2 ± 2.7
[4]; AM 10 ng/kg/min infusion 8 h/day x 14 days, at 8 weeks, n = 3, placebo 4.5 ± 3.5 (n = 2)
  Mayo score: 5.7 ± 2.5
[4]; AM 15 ng/kg/min infusion 8 h/day x 14 days, at 2 weeks, n = 6, baseline 9.8 ± 1.6, placebo 6.8 ± 3.6
  Mayo score: 7.0 ± 4.1
[4]; AM 15 ng/kg/min infusion 8 h/day x 14 days, at 8 weeks, n = 3, placebo 4.5 ± 3.5 (n = 2)
  Mayo score: 0.0 ± 0.0
[5]; AM 5 ng/kg/min infusion 8 h/day x 14 days, at 2 weeks, n = 4, baseline 10.8 ± 2.9, placebo 7.0 ± 5.8
  Lichitiger index: 5.5 ± 5.6
[5]; AM 5 ng/kg/min infusion 8 h/day x 14 days, at 4 weeks, n = 3, placebo 3.5 ± 3.7
  Lichitiger index: 2.0 ± 1.7
[5]; AM 5 ng/kg/min infusion 8 h/day x 14 days, at 8 weeks, n = 3, placebo 2.3 ± 4.0
  Lichitiger index: 1.3 ± 1.2
[5]; AM 10 ng/kg/min infusion 8 h/day x 14 days, at 2 weeks, n = 5, baseline 12.2 ± 0.4, placebo 7.0 ± 5.8
  Lichitiger index: 7.8 ± 3.8
[5]; AM 10 ng/kg/min infusion 8 h/day x 14 days, at 4 weeks, n = 3, placebo 3.5 ± 3.7
  Lichitiger index: 4.7 ± 4.7
[5]; AM 10 ng/kg/min infusion 8 h/day x 14 days, at 8 weeks, n = 3, placebo 2.3 ± 4.0
  Lichitiger index: 5.7 ± 4.5
[5]; AM 15 ng/kg/min infusion 8 h/day x 14 days, at 2 weeks, n = 6, baseline 12.0 ± 1.7, placebo 7.0 ± 5.8
  Lichitiger index: 6.5 ± 4.4
[5]; AM 15 ng/kg/min infusion 8 h/day x 14 days, at 4 weeks, n = 3, placebo 3.5 ± 3.7
  Lichitiger index: 1.3 ± 1.5
[5]; AM 15 ng/kg/min infusion 8 h/day x 14 days, at 8 weeks, n = 3, placebo 2.3 ± 4.0
  Lichitiger index: 0.3 ± 0.6
